Data on 10 compounds can be found in PubChem BioAssay (NCI).

Some test systems named below: SK-OV-3 ovarian; SNB-75 CNS; HOP-92 NSCLC; SF-295 CNS; HCT-116 colon; UACC-257 melanoma; OVCAR-8 ovarian; SN12C renal.
Assay in all cases: NCI tumour cell line growth inhibition, 48 h

Several values for one entry are separate records, joined by “and”; a condition that tells them apart may be missing. Equal entries are not always repeated.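 Exposure lasted 48 hours, with cells grown in 96-well plates and compounds tested at five concentrations. Here, GI50 denotes the concentration required for 50% inhibition of growth. The concentration for full growth arrest is given as TGI.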

For the compound `CCN(CC)CCC(CNc1c2ccc(Cl)cc2nc2ccc(OC)cc12)c1ccccc1` (stereo not given), the GI50 in the assay with SK-OV-3 ovarian is 1.64 µM; in the assay on SNB-75 CNS it was 1.49 µM; with HOP-92 NSCLC, 1.79 µM; in the assay with SF-295 CNS, 1.41 µM; in the assay with HCT-116 colon, 0.729 µM; in the assay on UACC-257 melanoma, 2.01 µM. Moreover, the results for the GI50 in the assay on OVCAR-8 ovarian and with SN12C renal were 1.26 µM and 1.15 µM, respectively. In addition, the TGI with SK-OV-3 ovarian stood at 3.5 µM; with SNB-75 CNS, 2.83 µM; with HOP-92 NSCLC it was 3.86 µM; in the assay with SF-295 CNS, 3.02 µM; in the assay with HCT-116 colon, 3.52 µM; in the assay on UACC-257 melanoma, 3.63 µM. In addition, the TGI in the assay with OVCAR-8 ovarian was 3.6 µM; in the assay with SN12C renal, 4.98 µM.
In the case of `Nc1nc(N)c2nn(-c3ccc(C(=O)O)cc3)nc2n1`, the TGI with SK-OV-3 ovarian, in the assay with SNB-75 CNS, in the assay on HOP-92 NSCLC, in the assay with SF-295 CNS, in the assay on HCT-116 colon and in the assay with UACC-257 melanoma was greater than 100 µM in each case. Moreover, the TGI in the assay on OVCAR-8 ovarian and in the assay on SN12C renal was greater than 100 µM throughout.
Turning to `CN1CCN(Cc2ccc(NC(=O)c3cncc(C#Cc4c(N)ncc5ccc(F)cc45)c3)cc2C(F)(F)F)CC1`, the GI50 in the assay on SK-OV-3 ovarian is 5.96 µM; in the assay on SNB-75 CNS, 0.721 µM; with HOP-92 NSCLC, 0.0285 µM; with SF-295 CNS it was 4.37 µM; with HCT-116 colon, 0.211 µM; with UACC-257 melanoma, 0.694 µM. For the same compound, the GI50 with OVCAR-8 ovarian is 1.76 µM; in the assay with SN12C renal it was 0.937 µM. Besides, the TGI in the assay on SK-OV-3 ovarian is 13.6 µM; in the assay with SNB-75 CNS, 2.66 µM; in the assay on HOP-92 NSCLC, 0.322 µM; in the assay with SF-295 CNS it was 13 µM; with HCT-116 colon, 1.37 µM; in the assay on UACC-257 melanoma, 1.69 µM. In addition, the TGI in the assay with OVCAR-8 ovarian stood at 8.03 µM; in the assay on SN12C renal, 5.3 µM.
For the compound `COC(=O)[C@@H](C)C[C@H](Cc1ccccc1)NC(=O)c1cccc([C@@H](C[C@H](C(C)C)N(C)C(=O)[C@@H](NC(=O)[C@H]2CCCCN2C)C(C)C)OC(C)=O)n1`, the GI50 in the assay on SK-OV-3 ovarian is 0.00235 µM; with SNB-75 CNS, less than 0.00167 µM; in the assay on HOP-92 NSCLC it was less than 0.00167 µM; with SF-295 CNS, less than 0.00167 µM; in the assay with HCT-116 colon it was less than 0.00167 µM; in the assay on UACC-257 melanoma it was 0.0118 µM. Also, the GI50 is 0.00243 µM in the assay on OVCAR-8 ovarian and 0.00266 µM in the assay on SN12C renal. Further, the TGI in the assay on SK-OV-3 ovarian is greater than 16.7 µM; in the assay with SNB-75 CNS, greater than 16.7 µM; with HOP-92 NSCLC it was 0.114 µM; with SF-295 CNS, 0.0142 µM; in the assay with HCT-116 colon, greater than 6.68 µM; in the assay on UACC-257 melanoma, greater than 16.7 µM. Moreover, the TGI in the assay on OVCAR-8 ovarian and in the assay with SN12C renal was greater than 16.7 µM each time.
For the compound `C/C=C\C(C)=C/C(C)C(=O)CC(O)CC1CC(=O)NC(=O)C1` (stereo not given), the TGI in the assay on SK-OV-3 ovarian was greater than 100 µM; in the assay with SNB-75 CNS, 68.2 µM; in the assay on HOP-92 NSCLC, greater than 100 µM; in the assay with SF-295 CNS it was greater than 100 µM; in the assay on HCT-116 colon it was greater than 100 µM; with UACC-257 melanoma it was greater than 100 µM. Also, the TGI with OVCAR-8 ovarian was 98.8 µM; in the assay on SN12C renal, greater than 100 µM.
For the compound `COc1ccc(-c2nccn2-c2cc(OC)c(OC)c(OC)c2)cc1`, the GI50 in the assay with SK-OV-3 ovarian was 6.13 µM; with SNB-75 CNS, 1.51 µM; with HOP-92 NSCLC it was 7.01 µM; in the assay on SF-295 CNS, 1.78 µM; with HCT-116 colon, 1.9 µM; in the assay on UACC-257 melanoma, 73.1 µM. The results for the GI50 in the assay on OVCAR-8 ovarian and in the assay on SN12C renal were 12 µM and 9.81 µM, respectively. Also, the TGI is greater than 25.6 µM with SK-OV-3 ovarian; greater than 76.3 µM in the assay with SNB-75 CNS; greater than 100 µM in the assay with HOP-92 NSCLC; greater than 68.1 µM with SF-295 CNS; greater than 100 µM with HCT-116 colon; greater than 100 µM in the assay with UACC-257 melanoma. The TGI with OVCAR-8 ovarian and in the assay on SN12C renal was greater than 100 µM each time.
Turning to `O=C1C2=C(Nc3cc([N+](=O)[O-])ccc3N2)OC1c1c[nH]c2ccc(COc3ccccc3)cc12` (stereo not given), the TGI is greater than 100 µM in the assay with SK-OV-3 ovarian; 65.9 µM with SNB-75 CNS; greater than 100 µM with HOP-92 NSCLC; greater than 100 µM in the assay with SF-295 CNS; greater than 100 µM in the assay with HCT-116 colon; greater than 100 µM in the assay on UACC-257 melanoma. Also, the TGI in the assay with OVCAR-8 ovarian and in the assay on SN12C renal was greater than 100 µM throughout.
Regarding `CCS(=O)(=O)Nc1ccc(Oc2ccc(F)cc2F)c(-c2cn(C)c(=O)c3[nH]ccc23)c1`, the GI50 in the assay with SK-OV-3 ovarian is less than 0.0109 µM; in the assay on SNB-75 CNS, less than 0.01 µM; in the assay on SF-295 CNS it was 0.0742 µM; in the assay on HCT-116 colon, 0.0321 µM; in the assay on UACC-257 melanoma, 0.0448 µM; in the assay on OVCAR-8 ovarian it was 0.253 µM. Also, in the assay with SN12C renal, the GI50 is 0.981 µM. Further, the TGI stood at 6.2 µM in the assay with SK-OV-3 ovarian; 0.986 µM in the assay with SNB-75 CNS; 28.3 µM in the assay on HOP-92 NSCLC; 20.1 µM with SF-295 CNS; 12.8 µM with HCT-116 colon; 23.1 µM in the assay on UACC-257 melanoma. The TGI in the assay on OVCAR-8 ovarian turned out to be 43.1 µM; in the assay with SN12C renal, 31.2 µM.
Take `Cc1cccc(NC(=O)c2sc3nc4c(cc3c2N)CCC4)c1C`: the GI50 with SK-OV-3 ovarian was 0.379 µM; in the assay on SNB-75 CNS, 0.189 µM; in the assay on HOP-92 NSCLC, 0.449 µM; in the assay with SF-295 CNS, 0.245 µM; in the assay on HCT-116 colon, 0.381 µM; in the assay on UACC-257 melanoma, 2.67 µM. Further, the GI50 in the assay on OVCAR-8 ovarian is 0.427 µM; with SN12C renal, 0.888 µM. For the same compound, the TGI with SK-OV-3 ovarian amounted to 18.4 µM; in the assay on SNB-75 CNS, 0.815 µM; with HOP-92 NSCLC it was 19 µM; with SF-295 CNS, 11.1 µM; in the assay with HCT-116 colon, 11.8 µM; with UACC-257 melanoma it was 46.6 µM. Further, the TGI in the assay on OVCAR-8 ovarian is 16.6 µM; in the assay on SN12C renal it was greater than 100 µM.
For `CC(CCC/C=C/CCCN(C)C(=N)N)CC(C)C1OC(=O)C(C)C(O)/C=C/C(C)C(O)C(C)C(O)C(C)C(O)CCCC(O)CC2(O)OC(CC(OC(=O)CC(=O)O)CC(O)CC(O)C(C)C(O)/C=C/C=C/C1C)CC(O)C2O` (stereo not given), the GI50 was 3 µM and 9.08 µg/mL in the assay on SK-OV-3 ovarian; 2.05 µM and 1.34 µg/mL in the assay on SNB-75 CNS; 1.92 µM and 9.74 µg/mL in the assay on HOP-92 NSCLC; 4.16 µM and 11.7 µg/mL in the assay with SF-295 CNS; 2.52 µM and 9.15 µg/mL in the assay on HCT-116 colon; 2.16 µM and 1.98 µg/mL in the assay with UACC-257 melanoma. Also, the GI50 with OVCAR-8 ovarian is 2.54 µM and 7.93 µg/mL; in the assay with SN12C renal it was 2.22 µM and 2.78 µg/mL. Besides, the TGI with SK-OV-3 ovarian was 11.7 µM and 18.5 µg/mL; in the assay with SNB-75 CNS, 4.94 µM and 7.44 µg/mL; in the assay on HOP-92 NSCLC it was 6.57 µM and 20.1 µg/mL; with SF-295 CNS, 17 µM and 22.5 µg/mL; with HCT-116 colon, 6.13 µM and 24.4 µg/mL; with UACC-257 melanoma, 4.29 µM and 6.29 µg/mL. The TGI in the assay with OVCAR-8 ovarian was 5.88 µM and 19.8 µg/mL; in the assay on SN12C renal, 4.97 µM and 12 µg/mL.
